# Assays:
# Type in all cases: functional
# [1] = tested on: Mus musculus; experiment: Antitumor activity was evaluated by the change in life span (day) against IMC carcinoma in mice at a dose of 1.8 mg/kg
# [2] = tested on: Mus musculus; experiment: Antitumor activity was evaluated by the increase in life span (I.L.S) against IMC carcinoma in mice at a dose of 1.8 mg/kg
# [3] = tested on: Mus musculus; experiment: Antitumor activity was evaluated by the change in body weight against IMC carcinoma in mice at a dose of 1.8 mg/kg
# [4] = tested on: Mus musculus; experiment: Antitumor activity was evaluated by the change in life span (day) against IMC carcinoma in mice at a dose of 77.6 mg/kg
# [5] = tested on: Mus musculus; experiment: Antitumor activity was evaluated by the increase in life span (I.L.S) against IMC carcinoma in mice at a dose of 77.6 mg/kg
# [6] = tested on: Mus musculus; experiment: Antitumor activity was evaluated by the change in body weight against IMC carcinoma in mice at a dose of 77.6 mg/kg
# [7] = tested on: Mus musculus; experiment: Antitumor activity was evaluated by the change in life span (day) against IMC carcinoma in mice at a dose of 20.7 mg/kg
# [8] = tested on: Mus musculus; experiment: Antitumor activity was evaluated by the change in body weight against IMC carcinoma in mice at a dose of 20.7 mg/kg
# [9] = tested on: Mus musculus; experiment: Antitumor activity was evaluated by the increase in life span (I.L.S) against IMC carcinoma in mice at a dose of 20.7 mg/kg
# [10] = tested on: Mus musculus; experiment: Antitumor activity was evaluated by the change in life span (day) against IMC carcinoma in mice at a dose of 9.0 mg/kg
# [11] = tested on: Mus musculus; experiment: Antitumor activity was evaluated by the increase in life span (I.L.S) against IMC carcinoma in mice at a dose of 9.0 mg/kg
# [12] = tested on: Mus musculus; experiment: Antitumor activity was evaluated by the change in body weight against IMC carcinoma in mice at a dose of 9.0 mg/kg
# [13] = tested on: Mus musculus; experiment: Antitumor activity was evaluated by the increase in life span (I.L.S) against IMC carcinoma in mice at a dose of 30.0 mg/kg
# [14] = tested on: Mus musculus; experiment: Antitumor activity was evaluated by the change in life span (day) against IMC carcinoma in mice at a dose of 30.0 mg/kg
# [15] = tested on: Mus musculus; experiment: Antitumor activity was evaluated by the change in body weight against IMC carcinoma in mice at a dose of 30.0 mg/kg
# [16] = tested on: Mus musculus; experiment: Antitumor activity was evaluated by the increase in life span (I.L.S) against IMC carcinoma in mice at a dose of 0.27 mg/kg
# [17] = tested on: Mus musculus; experiment: Antitumor activity was evaluated by the change in body weight against IMC carcinoma in mice at a dose of 0.27 mg/kg
# [18] = tested on: Mus musculus; experiment: Antitumor activity was evaluated by the change in life span (day) against IMC carcinoma in mice at a dose of 0.27 mg/kg
# [19] = tested on: Mus musculus; experiment: Antitumor activity was evaluated by the change in life span (day) against IMC carcinoma in mice at a dose of 41.1 mg/kg
# [20] = tested on: Mus musculus; experiment: Antitumor activity was evaluated by the change in body weight against IMC carcinoma in mice at a dose of 41.1 mg/kg
# [21] = tested on: Mus musculus; experiment: Antitumor activity was evaluated by the increase in life span (I.L.S) against IMC carcinoma in mice at a dose of 41.1 mg/kg
smiles,measurement,setting,value
CC1=CCC[C@@H]2[C@@](C)(CC/C(C)=C/CO)[C@H](C)CC[C@]12C,Life span,[1],12.3 days
same,ILS at 1.8 mg/kg,[2],-3%
same,Change in body weight,[3],1.4 g
C[C@H]1CC[C@]2(C)C(C(=O)O)=CCC[C@H]2[C@]1(C)CCc1ccoc1,Life span,[4],14.8 days
same,ILS at 77.6 mg/kg,[5],17%
same,Change in body weight,[6],1.6 g
C=C1CC[C@@H]2C(C)(C)CCC[C@@]2(C)[C@@H]1CC/C(C)=C/C(=O)O [COPALIC ACID],Life span,[7],14 days
same,Change in body weight,[8],1.5 g
same,ILS at 20.7 mg/kg,[9],10%
C=C1CC[C@H]2C(C)(C)CCC[C@]2(C)[C@H]1CC/C(C)=C/CO,Life span,[10],13 days
same,ILS at 9 mg/kg,[11],2%
same,Change in body weight,[12],1.4 g
O=c1[nH]cc(F)c(=O)[nH]1 [FLUOROURACIL],ILS at 30 mg/kg,[13],46%
same,Life span,[14],18.5 days
same,Change in body weight,[15],-1.8 g
C=C1CCC[C@@H]2[C@](C)(CC/C(C)=C/CO)[C@@H](C)CC[C@]12C,ILS at 0.27 mg/kg,[16],-8%
same,Change in body weight,[17],1.9 g
same,Life span,[18],11.7 days
CC1=CCC[C@@H]2[C@@](C)(CC/C(C)=C/CO)[C@H](C)CC[C@@]12C,Life span,[19],25.2 days
same,Change in body weight,[20],0.1 g
same,ILS at 41.1 mg/kg,[21],98%

# Reference: ChEMBL document CHEMBL1127231, “The isolation and in vivo Potent Antitumor activity of clerodane diterpenoid from the oleoresin of the brazilian medicinal plant, copaifera langsdorfi desfon” (1994)
